Measurements from ChEMBL document CHEMBL1146949, “Isoquinoline derivatives as potential acetylcholinesterase inhibitors” (Bioorg Med Chem Lett, 2006).

Tests used:
Acetylcholinesterase [1] = biological target: T1, Acetylcholinesterase (Homo sapiens, UniProt P22303); assay: Inhibition of AChE at 0.3 mM
Acetylcholinesterase [2] = biological target: T1, Acetylcholinesterase; assay: Inhibition of AChE at 0.03 mM
Acetylcholinesterase [3] = biological target: T1, Acetylcholinesterase; assay: Inhibition of AChE activity

T1 sequence (P22303 whole entry): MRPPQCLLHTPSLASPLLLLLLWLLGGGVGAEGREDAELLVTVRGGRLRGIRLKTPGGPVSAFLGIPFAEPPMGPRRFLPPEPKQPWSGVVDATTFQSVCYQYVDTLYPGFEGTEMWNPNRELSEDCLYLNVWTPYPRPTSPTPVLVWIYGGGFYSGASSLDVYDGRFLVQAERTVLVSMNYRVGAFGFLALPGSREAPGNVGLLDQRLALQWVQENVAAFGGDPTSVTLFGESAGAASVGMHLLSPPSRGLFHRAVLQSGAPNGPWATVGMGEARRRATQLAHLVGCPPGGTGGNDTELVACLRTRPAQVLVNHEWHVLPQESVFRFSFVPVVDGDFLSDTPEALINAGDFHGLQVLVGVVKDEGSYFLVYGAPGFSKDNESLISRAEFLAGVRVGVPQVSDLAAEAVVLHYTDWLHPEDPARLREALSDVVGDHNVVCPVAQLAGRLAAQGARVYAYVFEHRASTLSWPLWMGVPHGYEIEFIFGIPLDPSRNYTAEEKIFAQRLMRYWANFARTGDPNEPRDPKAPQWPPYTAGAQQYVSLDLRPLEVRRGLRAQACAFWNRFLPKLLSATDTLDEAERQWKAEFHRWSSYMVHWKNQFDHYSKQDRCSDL

`COC(=O)N1CCc2c(OC)c(OC)c(OC)c3c2C1Cc1cc(OC)c(OC)cc1-3` (stereo unspecified) gave an inhibition (Acetylcholinesterase [1]) of 15.9% and an inhibition (Acetylcholinesterase [2]) of 7.3%.
With `COc1ccc(Cc2nccc3cc(OC)c(OC)cc23)cc1OC` [PAPAVERINE] the IC50 (Acetylcholinesterase [3]) was 24.3 µM.
With `COc1cc2ccnc(C(O)c3ccccc3OC)c2cc1OC` (stereo unspecified) the IC50 (Acetylcholinesterase [3]) was 6.94 µM and the inhibition (Acetylcholinesterase [3]; concentration not given here) was 0%.
Work on `COc1ccc(C(O)c2nccc3cc(OC)c(OC)cc23)cc1OC` (stereo unspecified) yielded an IC50 (Acetylcholinesterase [3]) of 10.7 µM.
